# In ChEMBL document CHEMBL1795241 (Bioorg Med Chem, 2011):
# pIC50, pKi: −log10 of the molar value.
# Tests used:
# LNCaP = assay: cells; details: Homo sapiens, 144 h
# Description: Growth inhibition of human LNCAP cells after 6 days
# [1] = molecular target: Lysine-specific histone demethylase 1A (Homo sapiens, UniProt O60341)
# Description: Inhibition of human recombinant His-tagged full length LSD1 expressed in Escherichia coli BL21 (DE3) assessed as inactivation constant preincubated for 20 mins with substrate measured after 30 mins by AmplexRed based fluorescence quenching assay
Compound,pIC50 (LNCaP),pKi [1]
COc1ccc([C@@H]2C[C@H]2N)cc1,2.77,–
N[C@@H]1C[C@H]1c1ccc(-c2ccccc2)cc1,3.96,–
N[C@@H]1C[C@H]1c1ccccc1Br,2.23,–
N[C@@H]1C[C@H]1c1ccccc1-c1ccccc1,3.74,< 4.00
N[C@@H]1C[C@H]1c1ccc(Br)cc1,3.95,–
N[C@@H]1C[C@H]1c1cccc(-c2ccccc2)c1,3.65,< 4.00
N[C@@H]1C[C@H]1c1cccc(Br)c1,3.89,–
